# pIC50: −log10 of the molar value.
# Target: M-phase inducer phosphatase 2 (Homo sapiens) (UniProt P30305)
# Experiment: Cdc25B catalytic domain inhibition plus catalase – biochemical, catalase present, probe assessment, dose response (AID 668)
# Settings: recombinant Cdc25B catalytic domain, phosphatase activity, with catalase
# Sequence of M-phase inducer phosphatase 2 (Homo sapiens) (P30305 whole entry, looked up, the tested form may be a part): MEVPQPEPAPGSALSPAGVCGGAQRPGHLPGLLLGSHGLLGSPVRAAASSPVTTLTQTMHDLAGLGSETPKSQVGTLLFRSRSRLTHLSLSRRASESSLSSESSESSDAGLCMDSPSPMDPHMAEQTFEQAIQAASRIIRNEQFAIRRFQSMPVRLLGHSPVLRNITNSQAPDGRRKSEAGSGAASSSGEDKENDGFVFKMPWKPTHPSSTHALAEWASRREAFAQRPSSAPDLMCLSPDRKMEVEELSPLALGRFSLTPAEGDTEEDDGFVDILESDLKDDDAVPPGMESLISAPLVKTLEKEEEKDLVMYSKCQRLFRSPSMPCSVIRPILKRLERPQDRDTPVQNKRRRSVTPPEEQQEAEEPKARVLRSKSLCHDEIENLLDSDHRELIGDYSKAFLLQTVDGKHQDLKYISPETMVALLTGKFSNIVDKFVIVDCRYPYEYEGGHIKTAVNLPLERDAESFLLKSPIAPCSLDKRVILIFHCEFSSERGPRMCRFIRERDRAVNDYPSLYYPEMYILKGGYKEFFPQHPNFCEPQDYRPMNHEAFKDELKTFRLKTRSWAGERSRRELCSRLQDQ
row,pIC50,Compound
1,4.81,c1ccc(CSc2nnc(-c3ccco3)c(-c3ccco3)n2)cc1
2,5.15,COc1cccc2c(C)c(C(=O)O)[nH]c12

# — PubChem BioAssay AID668 (University of Pittsburgh Molecular Library Screening Center, 2007)
